Reference: paper PMC2009770, “Thiophene analogues of the carcinogens benzidine and 4-aminobiphenyl: evaluation in vitro” (British Journal of Cancer, 1978)
Each block holds one compound with its values, some of them ahead of it.

Experiments:
[1] = design: method as in Laham & Sinclair, 1969; details: rats; ref Laham & Sinclair, 1969; cited from earlier work
[2] = ref Ashby & Cook, 1974; cited from earlier work
BHK 21/C13 cells [3] = assay: cell-transformation assay of Styles; details: presence of S-9 mix, 2 separate occasions (Fig. 2)
[4] = tested on: Salmonella strains TA 1535, TA 1538, TA 98 and TA 100; assay: Salmonella reverse-mutation assay of Ames; details: for response in the Ames assay (Fig. 1): strain TA 1538, presence of Aroclor 1254-induced rat liver S-9 mix
[5] = chemical stability to heat, light and air (monitored by TLC and m.p.); assay type: physicochemical; details: for stability to heat and light: monitored by TLC and m.p.; for behaviour of the solid in air and light: noted at preparation
BHK 21/C13 cells [6] = assay: parallel cell-toxicity assay (% survivors) of the transformation assay; assay type: cell-based

Structure (SMILES): Nc1ccc(-c2ccc([N+](=O)[O-])cc2)cc1 [4-nitro-4'-aminobiphenyl]
bladder cancer induction [1]: induces bladder cancer

Structure (SMILES): Nc1ccc2c(c1)sc1ccccc12 [VII, 3-amino-dibenzothiophene]
carcinogenicity [2]: carcinogenicity

Structure (SMILES): Nc1ccc(-c2ccc(N)cc2)cc1 [XI, benzidine]
bladder cancer induction [1]: induces bladder cancer
response in the cell-transformation assay (BHK 21/C13 cells [3]): positive
response in the Ames assay ([4]; 4 Salmonella strains, 3 separate occasions, presence and absence of Aroclor 1254-induced rat liver S-9 mix): positive on each occasion
response in the Ames assay (Fig. 1) [4]: positive response

stability to heat and light [5]: unstable to heat and light
behaviour of the solid in air and light [5]: sensitive to light and air
Structure (SMILES): CC(=O)Nc1ccc(-c2ccc(N)s2)cc1.Cl [XIII, 5-p-acetamidophenyl-2-thiophenamine hydrochloride]

stability to heat and light [5]: unstable to heat and light
behaviour of the solid in air and light [5]: discolours quickly in air and light
Structure (SMILES): Cl.Nc1ccc(-c2ccccc2)s1 [XIV, 5-phenyl-2-thiophenamine hydrochloride]

Structure (SMILES): CC(=O)Nc1ccc(-c2ccc(NC(C)=O)s2)cc1 [XV, N-(5-p-acetamido-phenylthiophen-2-yl)acetamide]
cytotoxicity (toxicity curve, % survivors) (BHK 21/C13 cells [6]): toxicity curve similar to that of benzidine
stability to heat and light [5]: stable
response in the Ames assay (Fig. 1) [4]: positive response

stability to heat and light [5]: stable
Structure (SMILES): CC(=O)Nc1ccc(-c2ccccc2)s1 [XVI, N-(5-phenylthiophen-2-yl)-acetamide]
cytotoxicity (toxicity curve, % survivors) (BHK 21/C13 cells [6]): toxicity curve similar to that of benzidine
